Our source for the inhibition and IC50 values is paper PMC6009890, “Rosmarinic acid prevents fibrillization and diminishes vibrational modes associated to β sheet in tau protein linked to Alzheimer’s disease” (Journal of Enzyme Inhibition and Medicinal Chemistry, 2017).

Each structure is given as a SMILES string. Where two headings read alike, the source gives them in different places.

The target in experiment [1] is T1, tau protein (4R) (Homo sapiens, UniProt P10636).
T1 construct: gene MAPT; fragment 4R (htau244–372), His-tagged
T1 sequence (P10636 561-689): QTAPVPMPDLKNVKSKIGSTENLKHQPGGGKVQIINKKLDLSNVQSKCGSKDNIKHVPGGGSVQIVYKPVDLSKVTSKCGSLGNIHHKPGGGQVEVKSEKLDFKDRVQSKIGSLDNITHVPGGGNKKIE
The experiment can be described thus: ThT fluorescence of heparin-induced aggregation of purified tau 4R, single concentration […]. In kind it is biochemical.

Experiment [2] deals with T1, tau protein (4R). The experiment can be described thus: ThT fluorescence of heparin-induced aggregation of purified tau 4R; supported by AFM and Raman. In kind it is biochemical.

For the compound `CC(C)c1cc2c(c(O)c1O)[C@@]13CCCC(C)(C)[C@@H]1C[C@@H]2OC3=O` [compound 1, carnosol], the inhibition – broadly, the change of the read-out against control, counted positive when it falls – at 50 µM at tau protein (4R) [1] (read-out: Inhibition (%)) amounted to 68%.

As for `CC(C)c1cc2c(c(O)c1O)[C@@]1(C(=O)O)CCCC(C)(C)[C@@H]1CC2` [compound 2, carnosic acid], 50 µM produced 65% inhibition at tau protein (4R) [1]. On to `CC(C)c1cc2c(c(O)c1O)[C@@]13CCCC(C)(C)[C@@H]1[C@H](OC3=O)[C@H]2O` [compound 3, rosmanol], for which, on tau protein (4R) [1] (read-out: Inhibition (%)), the inhibition at 50 µM was 50%. Still for that read-out and setting: the value for `CC(C)c1cc2c(c(O)c1O)[C@@]13CCCC(C)(C)[C@@H]1[C@H](O)[C@@H]2OC3=O` [compound 4, epiisorosmanol] was 70%. Turning to `O=C(/C=C/c1ccc(O)c(O)c1)O[C@H](Cc1ccc(O)c(O)c1)C(=O)O` [compound 5, rosmarinic acid], on tau protein (4R) [2], the IC50 (usually the midpoint of a concentration-inhibition curve) was determined as 7.7 µM.
